Ends that are not written are not given here.

The subject of one assay is melanocortin receptors. Particulars: cited from earlier work.
The next assay addresses hMC5R (Homo sapiens, UniProt P33032). The conditions noted are these: Bednarek et al.; cited from earlier work.
A further assay has as its system rat MC5R. Particulars: CHO cells; cited from earlier work.
A further assay addresses mMC3R (Mus musculus, UniProt P33033). In words: cAMP based functional bioassay. It is filed as cell-based.
In another assay the target is mMC5R (Mus musculus, UniProt P41149). In words: cAMP based functional bioassay. It is filed as cell-based. Particulars: mMC5R EC50, agonist; mean ± SEM; >100000 = no activity at up to 100μM.
Sequence of mMC5R (P41149 whole entry): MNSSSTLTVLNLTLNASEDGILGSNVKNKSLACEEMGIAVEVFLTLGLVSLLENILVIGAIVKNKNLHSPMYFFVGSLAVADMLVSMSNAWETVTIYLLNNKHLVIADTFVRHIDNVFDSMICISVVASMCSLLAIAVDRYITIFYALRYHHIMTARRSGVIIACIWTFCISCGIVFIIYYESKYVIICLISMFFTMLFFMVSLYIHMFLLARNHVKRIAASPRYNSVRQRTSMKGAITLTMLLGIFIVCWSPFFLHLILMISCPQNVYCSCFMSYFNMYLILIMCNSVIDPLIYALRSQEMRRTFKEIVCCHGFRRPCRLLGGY

Sequence of mMC3R (P33033 whole entry): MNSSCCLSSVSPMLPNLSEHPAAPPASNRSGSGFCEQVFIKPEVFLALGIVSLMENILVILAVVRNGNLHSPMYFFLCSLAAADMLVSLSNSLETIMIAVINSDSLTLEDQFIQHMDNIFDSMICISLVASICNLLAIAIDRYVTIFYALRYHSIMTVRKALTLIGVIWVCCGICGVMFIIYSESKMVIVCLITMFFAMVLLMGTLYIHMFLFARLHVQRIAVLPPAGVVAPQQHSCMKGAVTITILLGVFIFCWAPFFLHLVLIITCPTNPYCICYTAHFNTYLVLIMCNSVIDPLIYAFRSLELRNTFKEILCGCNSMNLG
Sequence of hMC5R (P33032 whole entry): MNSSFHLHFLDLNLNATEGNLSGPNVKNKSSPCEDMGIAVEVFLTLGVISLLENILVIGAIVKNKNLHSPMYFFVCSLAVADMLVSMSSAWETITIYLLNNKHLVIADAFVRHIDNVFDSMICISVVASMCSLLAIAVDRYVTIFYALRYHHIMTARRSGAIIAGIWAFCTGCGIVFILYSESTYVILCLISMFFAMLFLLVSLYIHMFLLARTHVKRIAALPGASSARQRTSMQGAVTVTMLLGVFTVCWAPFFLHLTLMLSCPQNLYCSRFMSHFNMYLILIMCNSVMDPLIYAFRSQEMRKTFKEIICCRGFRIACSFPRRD

Take Ac-His-Phe-Arg-Trp-NH2: in the assay on melanocortin receptors, the “stimulation of melanocortin receptors” value is reported as “able to fully stimulate”. On to HS024, for which the “functional activity at the hMC5R” value on hMC5R is “full hMC5R agonist”. Also, the “functional activity at the rat MC5R” value with rat MC5R is “full agonist”.

Usually EC50 stands for the concentration at which the effect is half-maximal. High values mean a less potent agent, low ones a more potent agent. Regarding MGHFRWDRF [Peptide 27], the half-maximal effective concentration (EC50) on mMC3R (mMC3R EC50, agonist, mean ± SEM, >100000 = no activity at up to 100μM) worked out at 100 nM; at mMC5R it was 365 nM. In the case of YVMGHFRWDR [Peptide 6], the “selectivity for the mMC3R versus the mMC4R” value on mMC3R (from agonist EC50 values) was found to be 18 fold.

Source of the values: PMC2967600 (Peptides, 2010).
